Here are results for 19 compounds from publication PMC3262147 (Chemmedchem, 2011).

Where two headings read alike, the source gives them in different places.

Assay [1] has as its target T1, STS (Homo sapiens, UniProt P08842).
T1 sequence (P08842 22-583): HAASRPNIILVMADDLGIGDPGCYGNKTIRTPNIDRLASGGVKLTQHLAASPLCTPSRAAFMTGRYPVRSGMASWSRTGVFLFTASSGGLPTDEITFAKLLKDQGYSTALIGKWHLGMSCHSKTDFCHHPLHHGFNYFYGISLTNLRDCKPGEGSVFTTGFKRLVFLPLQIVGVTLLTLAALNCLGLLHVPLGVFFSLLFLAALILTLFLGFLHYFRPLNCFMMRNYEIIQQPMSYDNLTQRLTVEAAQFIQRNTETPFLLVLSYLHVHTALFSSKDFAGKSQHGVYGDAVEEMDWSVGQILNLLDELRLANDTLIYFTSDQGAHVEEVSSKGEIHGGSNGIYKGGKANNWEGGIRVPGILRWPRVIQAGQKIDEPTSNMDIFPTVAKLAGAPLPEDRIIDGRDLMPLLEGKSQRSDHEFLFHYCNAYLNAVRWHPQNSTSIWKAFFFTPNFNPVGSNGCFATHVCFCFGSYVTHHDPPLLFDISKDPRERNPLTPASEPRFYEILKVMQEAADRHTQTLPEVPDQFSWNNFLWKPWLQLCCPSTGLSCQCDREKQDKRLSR
Nature of the assay: Inhibition of STS activity in intact monolayers of JEG-3 cells. Format: cell-based. Particulars: for inhibition at 10 µM: JEG-3, JEG-3 cells.

Assay [2] relates to STS. Particulars: cited from earlier work.
Assay [3] has as its system rat liver STS. Particulars: 24 h after administration, cited from earlier work.
In assay [4] the test system is liver STS, skin STS. The settings on record: 1 and 10 mg kg^−1, cited from earlier work.
[5] abbreviates: preparation of placental microsomes.
Setting [6] is: read-out: PM IC50, placental microsomes.

For orientation: IC50 means the point on the concentration scale where inhibition reaches its midpoint. Consider `Cn1c(=O)c2c(c3ccc(OS(N)(=O)=O)cc31)CCCCC2` [Compound 18, 5-Methyl-6-oxo-6,7,8,9,10,11-hexahydro-5H-cyclohepta[c]quinolin-3-yl sulfamate], for which the IC50 in assay [1] came out at 2400 nM.

`NS(=O)(=O)Nc1ccc2c3c(c(=O)[nH]c2c1)CCCCC3` [Compound 24, 6-Oxo-6,7,8,9,10,11-hexahydro-5H-cyclohepta[c]quinolin-3-ylsulfamide]: the IC50 in assay [1] was over 1000 nM.

`COc1cc2c(cc1OS(N)(=O)=O)CC[C@@H]1[C@@H]2CC[C@]2(C)C(=O)CC[C@@H]12` [2-methoxyestrone 3-O-sulfamate, reference compound]: in assay [2] (setting [5]), the IC50 is 30 nM.

Take `NS(=O)(=O)Oc1ccc2c3c(c(=O)oc2c1)CCCCCCC3` [Compound 6, 6-Oxo-6,7,8,9,10,11,12,13-octahydrocyclonona[c]chromen-3-yl sulfamate]: the half-inhibitory concentration (IC50) is 0.022 nM in assay [1] and 2.4 nM in assay [2] (setting [6]).

The compound `COc1cc2c3c(c(=O)oc2cc1OS(N)(=O)=O)CCCCC3` [Compound 13, 2-Methoxy-6-oxo-6,7,8,9,10,11-hexahydrocyclohepta[c]chromen-3-yl sulfamate] displayed an IC50 in assay [1] of 78 ± 13 nM.

For `NS(=O)(=O)Oc1ccc2c3c(c(=O)oc2c1)CCCCCCCC3` [Compound 7, 6-Oxo-7,8,9,10,11,12,13,14-octahydro-6H-cyclodeca[c]chromen-3-yl sulfamate], the IC50 is 0.025 nM in assay [1] and 1 nM in assay [2] (setting [6]).

Turning to `C[C@]12CC[C@@H]3c4ccc(OS(N)(=O)=O)cc4CC[C@H]3[C@@H]1CCC2=O` [EMATE, oestrone 3-O-sulfamate, reference compound], the IC50 in assay [2] (setting [5]) was 4 nM.

In general, inhibition refers to the relative decrease from the control value, in per cent. Read a low inhibition as a response near the control. As usually defined, the Inhibition is the relative decrease from the control value, in per cent. Low values mean little suppression, high ones strong suppression. In assay [1], `NS(=O)(=O)Oc1ccc2c3c(c(=O)[nH]c2c1)CCCCC3` [Compound 16, 6-Oxo-6,7,8,9,10,11-hexahydro-5H-cyclohepta[c]quinolin-3-yl sulfamate] registered an IC50 of 240 ± 40 nM. The compound further showed an inhibition at 10 µM in assay [1] (determined at 10 μM) of 98%. Moreover, in assay [1] (JEG-3 IC50 versus 1), the “Fold less potent than 1” value is listed as 160 fold. Besides, the Inhibition in assay [1] (JEG-3 cells, determined at 10 μM, 10 µM) amounted to 96%.

On to `CCCCCn1c(=O)c2c(c3ccc(OS(N)(=O)=O)cc31)CCCCC2` [Compound 20, 6-Oxo-5-pentyl-6,7,8,9,10,11-hexahydro-5H-cyclohepta[c]quinolin-3-yl sulfamate], for which the inhibition at 10 µM in assay [1] (determined at 10 μM) is under 10%.

In the case of `NS(=O)(=O)Oc1ccc2c3c(c(=O)oc2c1)CCCCCCCCCCCCC3` [Compound 11, 6-Oxo-6,7,8,9,10,11,12,13,14,15,16,17,18,19-tetradecahydrocyclopentadeca[c]chromen-3-yl sulfamate], the IC50 in assay [1] is 1600 nM; in assay [2] (setting [6]), 370 nM. Moreover, the results for the “Inhibition of rat liver STS activity” value in assay [3] (0.1 mg kg^−1) and in assay [3] (1 mg kg^−1) were 23% and 94%, respectively.

As to `NS(=O)(=O)Oc1ccc2c3c(c(=O)oc2c1)CCCCCCCCCCC3` [Compound 10, 6-Oxo-6,7,8,9,10,11,12,13,14,15,16,17-dodecahydrocyclotrideca[c]chromen-3-yl sulfamate], the IC50 in assay [1] is 220 nM; in assay [2] (setting [6]) it was 75 nM.

As for `CN(C)S(=O)(=O)Oc1ccc2c3c(c(=O)oc2c1)CCCCC3` [Compound 12, 6-Oxo-6,7,8,9,10,11-hexahydrocyclohepta[c]chromen-3-yl dimethylsulfamate], in assay [1], the IC50 was over 10000 nM. In addition, the “JEG-3 IC50” value in assay [1] (JEG-3 cells, Table 1) is “inactive”. The “Inhibition of skin and liver STS” value in assay [4] (applied topically) is given as “inhibits skin as well as liver STS effectively”. Further, in assay [4] (nude mice, oral), the “Inhibition of liver STS activity” value is listed as “inhibits liver STS activity potently”.

As for `COc1nc2cc(OS(N)(=O)=O)ccc2c2c1CCCCC2` [Compound 19, 6-Methoxy-8,9,10,11-tetrahydro-7H-cyclohepta[c]quinolin-3-yl sulfamate], the inhibition at 10 µM in assay [1] (determined at 10 μM) came to 68%.

In the case of `NS(=O)(=O)Oc1ccc2oc(=O)c3c(c2c1)CCCCC3` [Compound 14, 6-oxo-6,7,8,9,10,11-hexahydrocyclohepta[c]chromen-2-yl sulfamate], the IC50 in assay [1] came out at 283 ± 66 nM.

In assay [1] (determined at 10 μM), `CCCCCOc1nc2cc(OS(N)(=O)=O)ccc2c2c1CCCCC2` [Compound 21, 6-(Pentyloxy)-8,9,10,11-tetrahydro-7H-cyclohepta[c]quinolin-3-yl sulfamate] showed an inhibition at 10 µM of under 10%.

With `NS(=O)(=O)Oc1ccc2c3c(c(OCCCc4ccccc4)nc2c1)CCCCC3` [Compound 23, 6-(3-Phenylpropoxy)-8,9,10,11-tetrahydro-7H-cyclohepta[c]quinolin-3-yl sulfamate], in assay [1] (determined at 10 μM), the inhibition at 10 µM is under 10%.

`NS(=O)(=O)Oc1ccc2c3c(c(=O)oc2c1)CCCCCCCCCC3` [Compound 9, 6-Oxo-7,8,9,10,11,12,13,14,15,16-decahydro-6H-cyclododeca[c]chromen-3-yl sulfamate]: the IC50 was 100 nM in assay [1] and 60 nM in assay [2] (setting [6]).

In the case of `NS(=O)(=O)Oc1ccc2c3c(c(=O)n(CCCc4ccccc4)c2c1)CCCCC3` [Compound 22, 6-Oxo-5-(3-phenylpropyl)-6,7,8,9,10,11-hexahydro-5H-cyclohepta[c]quinolin-3-yl sulfamate], the inhibition at 10 µM in assay [1] (determined at 10 μM) was 20%.

With `NS(=O)(=O)Oc1ccc2c3c(c(=O)oc2c1)CCCCC3` [Compound 1, Irosustat], the IC50 in assay [2] (setting [6]) was 8 nM.
